Measured values reported in patent publication US20190152967A1, “PEROXISOME PROLIFERATOR-ACTIVATED RECEPTOR GAMMA SELECTIVE AGONISTS FOR INHIBITION OF RETINAL PIGMENT EPITHELIUM DEGENERATION OR GEOGRAPHIC ATROPHY” (The Schepens Eye Research Institute, Inc., priority 2016, published 2019).

What was measured:
[1] = test system: caspase-1 activation in ARPE-19 cells; assay: ox-LDL-induced caspase-1 activation (FLICA probe) in ARPE-19 cells; type: cell-based; conditions: ARPE-19 serum-starved 24 hr, ox-LDL 100 μg/ml, troglitazone 1.3 μM, 48 hr
Excerpt: Cells were imaged by fluorescent microscope and the numbers of capase-1 positive cells for each treatment group were quantified by a masked investigator.

ARPE-19 cells = assay: ox-LDL-induced RPE (ARPE-19) cell death; type: cell-based; conditions: for protection of RPE from ox-LDL-induced cell death (FIG. 7): UVI3003 20 μM, troglitazone 1.3 μM alone or in combination with T0070907 and GW9662; for effect on the protection by PPARγ agonist troglitazone on RPE (FIG. 7): ARPE-19, ox-LDL, combined with troglitazone (1.3 μM)
Description: In FIG. 1B, ARPE-19 cells were treated for 48 hr with LDL or ox-LDL at 25, 50, or 100 μg/ml. Conditioned media were harvested, and LDH levels were quantified to evaluate cell death.
FIG. 5 is a bar graph showing testing different PPARγ agonists for RPE (ARPE-19) protection.
FIG. 7 is a bar graph showing testing the effect of different PPAR(α, γ) and RXR antagonists in ox-LDL-induced RPE (ARPE-19) cell death.

[2] = test system: PPARγ target genes (ANGPT, ACOX3) in ARPE19 cells; assay: PPARγ target genes expression in ARPE19 cells; conditions: 48-hour treatment, troglitazone vs. rosiglitazone
human primary RPE cells = assay: ox-LDL-induced cell death of human primary RPE
Description: For both, RPE cells were treated with 500 μg/mL of ox-LDL for 48 hr. Data=mean±SEM, **P<0.01 and ***P<0.001 compared to ox-LDL group (2-tailed unpaired t-test).
Data=mean±SEM, ***P<0.001 compared to ox-LDL group (2-tailed unpaired t-test).

primary human RPE cells = assay: chloroquine-induced death of primary human RPE cells
PPARγ [3] = target: T1, PPARγ (Homo sapiens, UniProt P37231); conditions: PPARγ antagonist; cited from earlier work
T1 sequence (P37231 1-505): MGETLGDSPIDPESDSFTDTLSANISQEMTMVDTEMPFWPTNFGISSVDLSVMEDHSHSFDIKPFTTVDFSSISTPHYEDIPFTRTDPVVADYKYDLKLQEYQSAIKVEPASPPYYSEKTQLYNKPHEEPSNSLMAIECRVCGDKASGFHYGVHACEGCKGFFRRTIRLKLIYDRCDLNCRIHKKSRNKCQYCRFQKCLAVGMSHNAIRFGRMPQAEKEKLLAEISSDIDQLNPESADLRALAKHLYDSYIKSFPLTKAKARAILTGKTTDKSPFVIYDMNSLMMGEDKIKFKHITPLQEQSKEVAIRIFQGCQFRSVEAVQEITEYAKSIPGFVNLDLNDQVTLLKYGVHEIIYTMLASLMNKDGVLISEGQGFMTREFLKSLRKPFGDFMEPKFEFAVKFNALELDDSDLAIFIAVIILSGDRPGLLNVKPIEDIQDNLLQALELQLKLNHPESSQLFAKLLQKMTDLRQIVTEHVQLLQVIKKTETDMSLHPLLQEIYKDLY

PPARγ [4] = target: T1, PPARγ; conditions: PPARγ agonist; cited from earlier work
RXR = RXR antagonist; cited from earlier work

Cc1c(C)c2c(c(C)c1O)CCC(C)(COc1ccc(CC3SC(=O)NC3=O)cc1)O2 (racemic) [troglitazone, (RS)-5-(4-[(6-hydroxy-2,5,7,8-tetramethylchroman-2-yl)methoxy]benzyl)thiazolidine-2,4-dione]
suppression of ox-LDL-induced caspase-1 activation (FIG. 3) [1]: significantly suppressed ox-LDL-induced caspase-1 activation
protection of RPE from ox-LDL-induced cell death (FIG. 7) (ARPE-19 cells; ARPE-19): significantly protected the RPE against ox-LDL-induced cell death
protection of RPE from ox-LDL-induced cell death (FIG. 5) (ARPE-19 cells; ARPE-19, troglitazone at 0.65 and 3.25 μM): significantly protected RPE cell from ox-LDL-induced cell death
expression levels of PPARγ target genes ANGPT (angiopoietin-like-4) and ACOX3 (FIGS. 6A-B) [2]: differentially affected
decrease of ox-LDL-induced cell death (FIG. 2B) (human primary RPE cells; human primary RPE, 500 μg/mL ox-LDL for 48 hr, doses of 0.65 μM and 0.98 μM): significantly decreased cell death in a dose-dependent manner
suppression of ox-LDL-induced death of primary human RPE cells (FIG. 4) (human primary RPE cells; primary human RPE cells): significantly suppressed ox-LDL-induced death
suppression of RPE death induced by chloroquine (FIG. 4) (primary human RPE cells): ineffective

CCC(=O)NC[C@H](Cc1ccc(OCCc2nc(-c3ccccc3)oc2C)cc1)N/C(C)=C\C(=O)c1ccc(C(F)(F)F)cc1 [GW6471]
protection of RPE from ox-LDL-induced cell death (FIG. 7) (ARPE-19 cells; ARPE-19): no detectable effect in RPE protection

O=C(Nc1ccccc1)c1cc([N+](=O)[O-])ccc1Cl [GW9662]
effect on the protection by PPARγ agonist troglitazone on RPE (FIG. 7) (ARPE-19 cells): did not affect the protection effect
protection of RPE from ox-LDL-induced cell death (FIG. 7) (ARPE-19 cells; ARPE-19): did not have any detectable protection effect
IC50 (PPARγ [3]): < 100 nM

O=C1NC(=O)C(Cc2ccc3cc(OCc4ccccc4F)ccc3c2)S1 (stereo not drawn) [MCC-555]
EC50 relative to rosiglitazone (PPARγ [4]): lower than that of rosiglitazone

CCCCC/C=C/C=C1/C(=O)C=C[C@@H]1C/C=C\CCCC(=O)O [PGJ2, 15-deoxy-Δ^12,14-Prostaglandin J2]
EC50 (PPARγ [4]): 2000 to 7000 nM

O=C(Nc1ccncc1)c1cc([N+](=O)[O-])ccc1Cl [T0070907]
effect on the protection by PPARγ agonist troglitazone on RPE (FIG. 7) (ARPE-19 cells): did not affect the protection effect
protection of RPE from ox-LDL-induced cell death (FIG. 7) (ARPE-19 cells; ARPE-19): did not have any detectable protection effect

CCCCCOc1cc2c(cc1-c1cc(/C=C/C(=O)O)ccc1O)C(C)(C)CCC2(C)C [UVI3003]
protection of RPE from ox-LDL-induced cell death (FIG. 7) (ARPE-19 cells; ARPE-19): significantly protected RPE from ox-LDL-induced death
protection of RPE from ox-LDL-induced death (ARPE-19 cells; ARPE-19, UVI3003 at high dose (20 μM)): about 100%
IC50 (RXR): < 1000 nM
